Data published in patent US20140005163A1 (NOVARTIS AG, priority 2010, published 2014).
Values after ≈ are worked out from the molar mass of the structure shown. Like-named read-outs stand apart in the source and are kept apart here.

What was measured:
Solubility at pH 6.8 = type: physicochemical
Description: The physicochemical properties of relevance for the absorption of the compound, such as the solubility and the membrane permeability, especially at a pH close to neutral pH can be measured using the procedure as described by L. ZHOU et al. in JOURNAL OF PHARMACEUTICAL SCIENCES, VOL. 96, NO. 11, p. 3052-3071 (2007) for the solubility at pH 6.8 and the procedure as described by F. Wohnsland and B. Faller in Journal of Medicinal Chemistry Vol 44, p. 923-930 (2001) for the Parallel Artificial Membrane Permeability Assay (PAMPA) at pH 6.8.

PI3K alpha = target: T1, PI3K alpha (Homo sapiens, UniProt P42336); experiment: PI3K alpha kinase assay (Kinase-Glo luminescence); type: biochemical
T1 construct: p85(iSH2) fusion partner (see partner chain) (N); His tag (C); made in house; host or cells: baculovirus; Tn5 (Trichoplusia ni) or TiniPro insect cells
T1 sequence (P42336 with tags, fused parts or gaps limits assumed): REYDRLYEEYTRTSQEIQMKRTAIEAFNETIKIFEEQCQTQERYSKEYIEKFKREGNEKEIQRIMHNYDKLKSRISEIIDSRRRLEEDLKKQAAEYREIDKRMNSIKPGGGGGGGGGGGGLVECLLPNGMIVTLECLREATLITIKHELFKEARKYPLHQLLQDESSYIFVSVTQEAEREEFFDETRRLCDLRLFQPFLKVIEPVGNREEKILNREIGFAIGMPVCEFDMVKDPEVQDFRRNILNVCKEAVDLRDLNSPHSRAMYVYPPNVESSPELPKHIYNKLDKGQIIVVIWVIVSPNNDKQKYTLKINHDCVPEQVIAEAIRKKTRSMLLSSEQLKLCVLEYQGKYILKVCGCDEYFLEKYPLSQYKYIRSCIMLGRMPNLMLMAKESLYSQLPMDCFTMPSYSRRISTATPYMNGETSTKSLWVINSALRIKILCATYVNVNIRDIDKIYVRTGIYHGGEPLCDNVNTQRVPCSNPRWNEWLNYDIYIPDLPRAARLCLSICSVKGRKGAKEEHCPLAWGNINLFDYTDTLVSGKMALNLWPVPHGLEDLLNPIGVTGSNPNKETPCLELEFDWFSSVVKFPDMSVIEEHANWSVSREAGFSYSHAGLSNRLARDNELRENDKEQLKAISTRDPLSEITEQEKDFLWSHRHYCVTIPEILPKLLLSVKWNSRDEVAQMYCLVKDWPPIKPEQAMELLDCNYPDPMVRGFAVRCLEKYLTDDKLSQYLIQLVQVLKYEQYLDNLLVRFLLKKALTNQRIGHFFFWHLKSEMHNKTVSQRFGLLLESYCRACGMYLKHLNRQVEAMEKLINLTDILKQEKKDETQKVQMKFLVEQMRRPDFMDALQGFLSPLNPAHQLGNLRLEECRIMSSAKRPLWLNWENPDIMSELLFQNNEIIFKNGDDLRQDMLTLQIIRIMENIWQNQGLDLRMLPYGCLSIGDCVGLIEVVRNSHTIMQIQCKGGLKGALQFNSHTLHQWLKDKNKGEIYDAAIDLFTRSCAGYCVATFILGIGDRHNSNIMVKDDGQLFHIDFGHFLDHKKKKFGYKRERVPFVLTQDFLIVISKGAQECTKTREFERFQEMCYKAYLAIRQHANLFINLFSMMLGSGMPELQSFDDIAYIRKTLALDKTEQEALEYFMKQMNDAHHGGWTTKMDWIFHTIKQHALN
Method in brief: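 Luminescent ATP-depletion assay (Kinase-Glo) with 10 nM PI3Kα and 10 μg/mL phosphatidylinositol as lipid substrate at 1 μM ATP. Incubation lasts 60 min at room temperature.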

mTOR = target: T2, mTOR (Homo sapiens, UniProt P42345); experiment: Biochemical assay for m-TOR by TR-FRET; conditions: 8 μM ATP, 400 nM GFP-4EBP1, 0.5 nM mTOR
T2 construct: purchased Invitrogen Corporation (Carlsbad/CA, USA) PV4753
T2 sequence (P42345 1360-2549 limits assumed): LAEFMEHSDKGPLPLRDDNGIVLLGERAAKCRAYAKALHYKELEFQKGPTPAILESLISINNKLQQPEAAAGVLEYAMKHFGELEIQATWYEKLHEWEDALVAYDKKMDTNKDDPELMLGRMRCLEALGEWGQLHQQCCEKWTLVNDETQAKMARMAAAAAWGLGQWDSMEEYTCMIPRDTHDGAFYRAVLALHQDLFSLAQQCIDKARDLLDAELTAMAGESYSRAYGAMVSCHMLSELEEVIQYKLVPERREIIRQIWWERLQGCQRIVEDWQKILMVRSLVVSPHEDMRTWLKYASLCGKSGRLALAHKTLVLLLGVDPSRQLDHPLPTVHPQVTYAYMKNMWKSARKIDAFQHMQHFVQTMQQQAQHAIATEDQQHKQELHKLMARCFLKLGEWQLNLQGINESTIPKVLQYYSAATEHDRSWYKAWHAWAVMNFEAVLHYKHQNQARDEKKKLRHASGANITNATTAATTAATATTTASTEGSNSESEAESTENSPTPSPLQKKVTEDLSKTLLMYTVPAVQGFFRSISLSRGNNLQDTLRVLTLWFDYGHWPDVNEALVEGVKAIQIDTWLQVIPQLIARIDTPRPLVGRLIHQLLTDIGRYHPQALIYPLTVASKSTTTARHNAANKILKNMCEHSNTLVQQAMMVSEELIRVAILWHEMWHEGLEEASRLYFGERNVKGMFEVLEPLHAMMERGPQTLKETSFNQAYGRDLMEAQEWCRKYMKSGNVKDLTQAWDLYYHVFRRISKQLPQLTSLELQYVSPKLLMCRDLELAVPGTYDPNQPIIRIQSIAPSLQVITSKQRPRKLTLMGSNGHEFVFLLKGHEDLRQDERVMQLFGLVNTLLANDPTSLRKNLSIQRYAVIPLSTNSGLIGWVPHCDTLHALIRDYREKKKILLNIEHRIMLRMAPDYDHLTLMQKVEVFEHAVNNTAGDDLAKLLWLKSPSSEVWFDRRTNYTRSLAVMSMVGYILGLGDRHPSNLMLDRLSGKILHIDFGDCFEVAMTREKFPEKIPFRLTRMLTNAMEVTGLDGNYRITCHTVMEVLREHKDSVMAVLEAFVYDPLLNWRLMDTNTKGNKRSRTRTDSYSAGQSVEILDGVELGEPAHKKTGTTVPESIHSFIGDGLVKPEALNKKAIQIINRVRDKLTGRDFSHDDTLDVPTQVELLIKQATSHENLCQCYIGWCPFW
Method in brief: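 Enzyme 0.5 nM, GFP-4EBP1 400 nM, ATP 8 μM (all final); 50 mM HEPES pH 7.5, 10 mM MnCl2, 1 mM DTT; rt. Detection: Tb-α-p4EBP1 [pT46] 0.5 nM in EDTA, TR-FRET, 15 min. Reference compound on every plate, 16-point duplicate dilutions.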

[1] = system: PKB Ser473 phosphorylation in Rat1-myr-HA-p110 alpha cells; experiment: Reverse protein array assay, PKB Ser473 phosphorylation in Rat1-myr-p110 alpha cells; type: cell-based; conditions: 0.5 h, pAkt Ser473, 30 minutes compound incubation, read-out: p-PKB IC50
Method in brief: (§1)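 Compound exposure lasted 30 min in Rat1 cells bearing membrane-targeted HA-p110 isoforms, using 8 serial concentrations. Arrayed lysates, each spotted at four dilutions, gave relative fluorescence signals for phospho-Ser473 PKB.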

[2] = system: PKB Ser473 phosphorylation in Rat1-myr-HA-p110 beta cells; experiment: Reverse protein array assay, PKB Ser473 phosphorylation in Rat1-myr-p110 beta cells; type: cell-based; conditions: 0.5 h, pAkt Ser473, 30 minutes incubation, read-out: p-PKB IC50
Method in brief: as §1

[3] = system: PKB Ser473 phosphorylation in Rat1-myr-HA-p110 delta cells; experiment: Reverse protein array assay, PKB Ser473 phosphorylation in Rat1-myr-p110 delta cells; type: cell-based; conditions: read-out: p-PKB IC50
Method in brief: as §1

PI3K delta = target: T3, PI3K delta (Homo sapiens, UniProt O00329); experiment: PI3K delta kinase assay (Kinase-Glo luminescence); type: biochemical
T3 construct: for the full-length p110-d subunit are generated and fused by overlapping PCR; p85(iSH2) fusion partner (see partner chain) (N); His tag (C); made in house; host or cells: baculovirus; Tn5 (Trichoplusia ni) or TiniPro insect cells
T3 sequence (O00329 with tags, fused parts or gaps limits assumed): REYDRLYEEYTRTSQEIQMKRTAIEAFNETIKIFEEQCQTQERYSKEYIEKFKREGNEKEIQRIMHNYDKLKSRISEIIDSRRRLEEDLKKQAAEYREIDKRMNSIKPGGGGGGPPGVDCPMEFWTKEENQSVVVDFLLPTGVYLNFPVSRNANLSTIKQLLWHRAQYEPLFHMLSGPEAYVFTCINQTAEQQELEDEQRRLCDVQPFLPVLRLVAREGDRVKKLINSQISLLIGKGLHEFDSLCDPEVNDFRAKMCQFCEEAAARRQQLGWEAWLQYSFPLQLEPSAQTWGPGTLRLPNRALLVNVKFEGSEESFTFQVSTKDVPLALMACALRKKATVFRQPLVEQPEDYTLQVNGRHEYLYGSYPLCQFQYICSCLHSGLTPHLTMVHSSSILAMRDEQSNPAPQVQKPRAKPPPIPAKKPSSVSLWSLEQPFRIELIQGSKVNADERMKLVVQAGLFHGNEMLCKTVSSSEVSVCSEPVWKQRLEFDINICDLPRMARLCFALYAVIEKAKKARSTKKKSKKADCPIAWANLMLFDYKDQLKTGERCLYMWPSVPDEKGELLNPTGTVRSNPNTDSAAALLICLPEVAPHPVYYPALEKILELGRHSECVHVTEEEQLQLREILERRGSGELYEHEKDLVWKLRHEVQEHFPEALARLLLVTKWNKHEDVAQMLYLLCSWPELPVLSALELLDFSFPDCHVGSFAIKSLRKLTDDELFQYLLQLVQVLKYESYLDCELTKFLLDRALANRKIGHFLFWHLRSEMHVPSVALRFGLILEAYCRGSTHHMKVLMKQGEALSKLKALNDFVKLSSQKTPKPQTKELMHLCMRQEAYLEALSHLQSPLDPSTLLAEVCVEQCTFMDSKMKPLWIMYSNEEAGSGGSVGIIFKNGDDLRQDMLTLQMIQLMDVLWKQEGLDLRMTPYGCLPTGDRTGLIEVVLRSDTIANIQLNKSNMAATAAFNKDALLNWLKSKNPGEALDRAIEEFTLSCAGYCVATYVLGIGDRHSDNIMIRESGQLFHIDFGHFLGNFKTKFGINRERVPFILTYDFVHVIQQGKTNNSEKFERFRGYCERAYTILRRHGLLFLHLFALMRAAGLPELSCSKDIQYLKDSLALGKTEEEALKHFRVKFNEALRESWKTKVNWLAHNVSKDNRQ
Method in brief: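 Inhibition is derived from luminescent detection of unconsumed ATP. The reaction runs for one hour at ambient temperature and contains the δ isoform fusion protein, phosphatidylinositol substrate and low (1 μM) ATP. Eight compound concentrations are tested in single, and a 4-parameter logistic model is used to calculate IC50.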

[4] = system: S6 Ribosomal Protein phosphorylation Ser235/236 in TSC1 null mouse embryo fibroblast (MEF) cells; experiment: Reverse protein array assay, S6 Ribosomal Protein phosphorylation Ser235/236 in TSC1 null MEF cells; type: cell-based; conditions: 1 h, pS6 ribosomal protein Ser235/236, 60 minutes incubation, read-out: p-S6 IC50
Method in brief: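 TSC1−/− MEFs, seeded and held ≥20 h at 37 °C/5% CO2, were exposed to 8-step serial compound dilutions (0.02% DMSO final; DMSO vehicle control) for 60 min at 37 °C. Cells were then lysed on ice for 10 min and lysates spotted onto reverse protein array chips.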

[5] = pH 6.8, aqueous buffer, thermodynamic from solid, read-out: solubility

SMILES	solubility (Solubility at pH 6.8; [5])	IC50 (PI3K alpha)	IC50 (mTOR)	IC50 [1]	IC50 [2]	IC50 [3]	IC50 (PI3K delta)	solubility (Solubility at pH 6.8; pH 6.8)	IC50 [4]
CN(C)c1ccc(-c2ccc3ncc4c(c3c2)n(-c2ccnn2C)c(=O)n4C)cn1 [Example 4.7, 8-(6-Dimethylamino-pyridin-3-yl)-3-methyl-1-(2-methyl-2H-pyrazol-3-yl)-1,3-dihydro-imidazo[4,5-c]quinolin-2-one]	3 µg/mL (≈ 7.51 µM)	461 nM	505 nM	134 nM	121 nM	547 nM			
Cn1nccc1-n1c(=O)n(C)c2cnc3ccc(-c4ccc(C(F)(F)F)nc4)cc3c21 [Example 8.1, 3-Methyl-1-(2-methyl-2H-pyrazol-3-yl)-8-(6-trifluoromethyl-pyridin-3-yl)-1,3-dihydro-imidazo[4,5-c]quinolin-2-one]	18 µg/mL (≈ 42.4 µM)	210 nM	734 nM	589 nM			167 nM		
Cc1nn(CC(=O)N(C)C)c(C)c1-n1c(=O)n(C)c2cnc3ccc(-c4ccccc4)cc3c21 [Example 37.4, 2-[3,5-Dimethyl-4-(3-methyl-2-oxo-8-phenyl-2,3-dihydro-imidazo[4,5-c]quinolin-1-yl)-pyrazol-1-yl]-N,N-dimethyl-acetamide]	37 µg/mL (≈ 81.4 µM)	266 nM							844 nM
COCCn1nc(C)c(-n2c(=O)n(C)c3cnc4ccc(-c5ccc(-n6cccn6)cc5)cc4c32)c1C [Example 51.5]	14 µg/mL (≈ 28.4 µM)	110 nM		17 nM		516 nM	362 nM		25 nM
CCN(C)c1ccc(-c2ccc3ncc4c(c3c2)n(-c2cn(C(C)C)nc2C)c(=O)n4C)cn1 [Example 98.2, 8-[6-(Ethyl-methyl-amino)-pyridin-3-yl]-1-(1-isopropyl-3-methyl-1H-pyrazol-4-yl)-3-methyl-1,3-dihydro-imidazo[4,5-c]quinolin-2-one]	75 µg/mL (≈ 165 µM)	118 nM	30 nM	10 nM	18 nM	59 nM	101 nM		
CCN(C)c1ccc(-c2ccc3ncc4c(c3c2)n(-c2cn(CC)nc2C)c(=O)n4C)cn1 [Example 98.3, 8-[6-(Ethyl-methyl-amino)-pyridin-3-yl]-1-(1-ethyl-3-methyl-1H-pyrazol-4-yl)-3-methyl-1,3-dihydro-imidazo[4,5-c]quinolin-2-one]	10 µg/mL (≈ 22.6 µM)	55 nM	22 nM	12 nM	16 nM	43 nM	72 nM		
Cc1nn(C)cc1-n1c(=O)n(C)c2cnc3ccc(-c4ccnc(N(C)C(C)C)c4)cc3c21 [Example 130, 1-(1,3-Dimethyl-1H-pyrazol-4-yl)-8-[2-(isopropyl-methyl-amino)-pyridin-4-yl]-3-methyl-1,3-dihydro-imidazo[4,5-c]quinolin-2-one]	74 µg/mL (≈ 168 µM)	785 nM	494 nM	330 nM			386 nM		
CCOc1ccc(-c2ccc3ncc4[nH]c(=O)n(-c5cn(CC(=O)N6CCN(C)CC6)nc5C)c4c3c2)cn1 [Example 133, 8-(6-Ethoxy-pyridin-3-yl)-1-{3-methyl-1-[2-(4-methyl-piperazin-1-yl)-2-oxo-ethyl]-1H-pyrazol-4-yl}-1,3-dihydro-imidazo[4,5-c]quinolin-2-one]	72 µg/mL (≈ 137 µM)	938 nM	13 nM				932 nM		508 nM
Cc1nn(C)cc1-n1c(=O)n(C)c2cnc3ccc(-c4ccc(N5CC[C@H](O)C5)nc4)cc3c21 [Example 212.2, 1-(1,3-Dimethyl-1H-pyrazol-4-yl)-8-[6-((S)-3-hydroxy-pyrrolidin-1-yl)-pyridin-3-yl]-3-methyl-1,3-dihydro-imidazo[4,5-c]quinolin-2-one]	43 µg/mL (≈ 94.4 µM)	215 nM	92 nM	115 nM	185 nM		647 nM		
CCNC(=O)c1cc(-c2ccc3ncc4c(c3c2)n(-c2c(C)nn(C)c2C)c(=O)n4C)cnc1NC [Example 242.2, N-Ethyl-2-methylamino-5-[3-methyl-2-oxo-1-(1,3,5-trimethyl-1H-pyrazol-4-yl)-2,3-dihydro-1H-imidazo[4,5-c]quinolin-8-yl]-nicotinamide]	> 485 µg/mL			371 nM	995 nM	895 nM			88 nM

Continued, in another order:

solubility (Solubility at pH 6.8; [5])	IC50 (PI3K alpha)	IC50 (mTOR)	IC50 [1]	IC50 [2]	IC50 [3]	IC50 (PI3K delta)	solubility (Solubility at pH 6.8; pH 6.8)	SMILES	IC50 [4]
			166 nM	171 nM	298 nM		2 µg/mL (≈ 4.4 µM)	Cc1nn(C)cc1-n1c(=O)n(C)c2cnc3ccc(-c4cnc5c(c4)n(C)c(=O)n5C)cc3c21 [Example 67, 8-(1,3-Dimethyl-2-oxo-2,3-dihydro-1H-imidazo[4,5-b]pyridin-6-yl)-1-(1,3-dimethyl-1H-pyrazol-4-yl)-3-methyl-1,3-dihydro-imidazo[4,5-c]quinolin-2-one]	
41 µg/mL (≈ 93.5 µM)	173 nM	160 nM	337 nM	417 nM	530 nM	372 nM		Cc1nn(C)cc1-n1c(=O)n(C)c2cnc3ccc(-c4cnc5c(c4)nc(C)n5C)cc3c21 [Example 73, 8-(2,3-Dimethyl-3H-imidazo[4,5-b]pyridin-6-yl)-1-(1,3-dimethyl-1H-pyrazol-4-yl)-3-methyl-1,3-dihydro-imidazo[4,5-c]quinolin-2-one]	
61 µg/mL (≈ 165 µM)			303 nM	725 nM				Cc1nn(C)cc1-n1c(=O)n(C)c2cnc3ccc(-c4ccccn4)cc3c21 [Example 114, 1-(1,3-Dimethyl-1H-pyrazol-4-yl)-3-methyl-8-pyridin-2-yl-1,3-dihydro-imidazo[4,5-c]quinolin-2-one]	
			29 nM	36 nM	62 nM		2 µg/mL (≈ 4.54 µM)	Cc1nn(C)cc1-n1c(=O)n(C)c2cnc3ccc(-c4cnc(N5CCCC5)nc4)cc3c21 [Example 140.2, 1-(1,3-Dimethyl-1H-pyrazol-4-yl)-3-methyl-8-(2-pyrrolidin-1-yl-pyrimidin-5-yl)-1,3-dihydro-imidazo[4,5-c]quinolin-2-one]	6 nM
14 µg/mL (≈ 31.1 µM)		< 3 nM	10 nM	6 nM	7 nM			COCc1cc(-c2ccc3ncc4c(c3c2)n(-c2cn(C)nc2Cl)c(=O)n4C)cnc1N [Example 168.3, 8-(6-Amino-5-methoxymethyl-pyridin-3-yl)-1-(3-chloro-1-methyl-1H pyrazol-4-yl)-3-methyl-1,3-dihydro-imidazo[4,5-c]quinolin-2-one]	< 0.5 nM
8 µg/mL (≈ 17.5 µM)		56 nM	< 5 nM	34 nM	27 nM			CCc1ncc(-c2ccc3ncc4c(c3c2)n(-c2cn(C)nc2C)c(=O)n4C)cc1OC(C)C [Example 186, 1-(1,3-Dimethyl-1H-pyrazol-4-yl)-8-(6-ethyl-5-isopropoxy-pyridin-3-yl)-3-methyl-1,3-dihydro-imidazo[4,5-c]quinolin-2-one]	1.02 nM
21 µg/mL (≈ 46.8 µM)		7 nM	13 nM	16 nM	22 nM			Cn1cc(-n2c(=O)n(C)c3cnc4ccc(-c5cncc(C(C)(C)O)c5)cc4c32)c(Cl)n1 [Example 215.3, 1-(3-Chloro-1-methyl-1H-pyrazol-4-yl)-8-[5-(1-hydroxy-1-methyl-ethyl)-pyridin-3-yl]-3-methyl-1,3-dihydroimidazo[4,5-c]quinolin-2-one]	1 nM
